# Laboratory results published in patent US20090202430A1, “COMPOSITION FOR CYTOCOMPATIBLE, INJECTABLE, SELF-GELLING POLYSACCHARIDE SOLUTIONS FOR ENCAPSULATING AND DELIVERING LIVE CELLS OR BIOLOGICALLY ACTIVE FACTORS” (BIO SYNTECH CANADA INC., priority 2002, published 2009).
# Key:
# cells = assay: Viability of cells maintained in cross-linker solution (FIG. 4A); assay type: cell-based; details: cells incubated in 0.3% peroxide for the same time period (up to 72 hours)
# Protocol: FIG. 4A illustrates viability of cells maintained in hydroxyethyl cellulose, or glyoxal cross-linker for over an hour;
# In FIG. 4A, high viability is maintained after encapsulation in cross-linked chitosan with glyoxal, or hydroxyethyl cellulose-glyoxal. FIG. 4A illustrates that the active hydroxyethyl cellulose-cross linker is cytocompatible. Cells incubated up to 72 hours in active cross-linker remain over 95% viable. Cells incubated in 0.3% peroxide for the same time period are 100% non-viable. After mixing with chitosan and injecting through a syringe with a 26-gauge needle, encapsulated cells in solid gel remain over 95% viable. After mixing with chitosan and pouring into a petri, encapsulated cells in solid gel remain over 95% viable after 1 day of culture.
# encapsulated cells = assay: MTT assay (live cell metabolism) and Hoechst DNA assay (cell proliferation) of cells in cross-linked chitosan gels (FIG. 4B); assay type: cell-based; details: MTT and Hoechst DNA assays, after encapsulation
# Text: In FIG. 4B, as shown by MTT assay on day 1 encapsulated cells, hydroxyethyl cellulose offers additional protection to cells immediately post-encapsulation.
Structure (SMILES),non-viable cells (cells) [%],viability and proliferation of cells encapsulated in chitosan gel (encapsulated cells)
OO [peroxide],100,–
O=CC=O [glyoxal],–,viable after encapsulation and proliferate in the gel
